Assay results reported in patent US5081261A, “4-(1-hydroxy-2-N-substituted sulfonamido) ethyl-5-hydroxy-2(5H)-furanones and 4-(N-substituted sulfonamido)-2-ethenyl-5-hydroxy-2(5H)-furanones as anti-inflammatory agents” (Allergan, Inc., priority 1990, dated 1992).

Experiments:
[1] = prior art; cited from earlier work
[2] = molecular target: bee venom phospholipase A2 (Apis mellifera, UniProt P00630); assay: biochemical
[3] = tested on: phosphoinositide-specific phospholipase C; settings: reported for manoalide, Bennett et al; cited from earlier work

Sequence of bee venom phospholipase A2 (P00630 34-167 limits assumed): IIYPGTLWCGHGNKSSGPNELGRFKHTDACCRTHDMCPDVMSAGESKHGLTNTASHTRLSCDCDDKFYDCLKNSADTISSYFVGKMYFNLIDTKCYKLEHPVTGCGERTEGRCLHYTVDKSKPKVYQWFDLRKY

SMILES	biological properties [1]	IC50 [2] [µM]	inhibition of phosphoinositide-specific phospholipase C [3]
CC1=C(CC/C(C)=C/CCC(C=O)=CCC(O)C2=CC(=O)OC2O)C(C)(C)CCC1 (stereo not drawn) [Compound 2]	anti-inflammatory activity		
CC1=C(CC/C(C)=C/CCC2=CCC(C3=CC(=O)OC3O)OC2O)C(C)(C)CCC1 (stereo not drawn) [Compound 1]	anti-inflammatory,immunosuppressive and analgesic properties	0.03	inhibition
CCCCCCCCCCCCNS(=O)(=O)CC(OC(C)=O)C1=CC(=O)OC1O (stereo not drawn) [Compound 6, 4-[1-Acetoxy-2-(N-dodecylsulfonamido)]ethyl-5-hydroxy-2(5H)-furanone]		0.05	
CC1=C(CC/C(C)=C/CCC(C=O)=CC=CC2=CC(=O)OC2O)C(C)(C)CCC1 (stereo not drawn) [Compound 3]	anti-inflammatory activity		
CCCCCCCCCCCCNS(=O)(=O)CC(O)C1=CC(=O)OC1O (stereo not drawn) [Compound 5, 4-[1-Hydroxy-2-(N-dodecylsulfonamido)]ethyl-5-hydroxy-2(5H)-furanone]		0.1	
CCCCCCCCCCCCNS(=O)(=O)/C=C/C1=CC(=O)OC1O (stereo not drawn) [Compound 4, 4-[2-(N-Dodecylsulfonamido)ethenyl]-5-hydroxy-2(5H)-furanone]		0.04	
CCCCCCCCCCCCNS(=O)(=O)CC(OC(=O)CCCC(=O)O)C1=CC(=O)OC1O (stereo not drawn) [Compound 7, 4-[1-Gluraroyloxy-2-(N-dodecylsulfonamido)]ethyl-5-hydroxy-2(5H)-furanone]		0.05	
